In patent US9145392B2, “Imidazole amines as modulators of kinase activity” (Merck Patent GmbH, priority 2011, dated 2015) one finds IC50 data, which are given here for 26 molecules.

Like-named read-outs stand apart in the source and are kept apart here. Where only a bound is given, the exact number is not on record here.

The target of one assay is P70S6K (T412E mutant) (Homo sapiens (Human), UniProt P23443, T412E). The assay is described as follows: P70S6K enzyme assay. In kind it is biochemical. The method, boiled down: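 Read-out is the substrate/phosphopeptide ratio from mobility-shift electrophoresis on a LabChip 3000.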
A further assay has as its target His-AKT (Full Length) (Homo sapiens (Human), UniProt P31749). The assay is described as follows: AKT enzyme assay. In kind it is biochemical.

Chain of P70S6K (T412E mutant) (P23443 whole entry T412E): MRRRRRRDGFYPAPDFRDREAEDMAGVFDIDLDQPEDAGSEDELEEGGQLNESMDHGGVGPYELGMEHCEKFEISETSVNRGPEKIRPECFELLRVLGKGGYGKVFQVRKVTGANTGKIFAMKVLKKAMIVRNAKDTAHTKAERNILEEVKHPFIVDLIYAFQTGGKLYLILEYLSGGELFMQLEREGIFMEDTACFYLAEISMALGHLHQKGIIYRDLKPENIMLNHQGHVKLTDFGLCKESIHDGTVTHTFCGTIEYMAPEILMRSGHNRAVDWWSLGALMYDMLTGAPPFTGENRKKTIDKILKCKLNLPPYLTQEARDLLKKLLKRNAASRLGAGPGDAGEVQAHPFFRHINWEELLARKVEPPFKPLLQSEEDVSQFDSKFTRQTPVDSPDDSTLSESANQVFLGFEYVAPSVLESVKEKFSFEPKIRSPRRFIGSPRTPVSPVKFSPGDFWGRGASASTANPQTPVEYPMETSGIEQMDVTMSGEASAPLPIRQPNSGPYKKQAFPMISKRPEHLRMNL
Chain of His-AKT (Full Length) (P31749 whole entry): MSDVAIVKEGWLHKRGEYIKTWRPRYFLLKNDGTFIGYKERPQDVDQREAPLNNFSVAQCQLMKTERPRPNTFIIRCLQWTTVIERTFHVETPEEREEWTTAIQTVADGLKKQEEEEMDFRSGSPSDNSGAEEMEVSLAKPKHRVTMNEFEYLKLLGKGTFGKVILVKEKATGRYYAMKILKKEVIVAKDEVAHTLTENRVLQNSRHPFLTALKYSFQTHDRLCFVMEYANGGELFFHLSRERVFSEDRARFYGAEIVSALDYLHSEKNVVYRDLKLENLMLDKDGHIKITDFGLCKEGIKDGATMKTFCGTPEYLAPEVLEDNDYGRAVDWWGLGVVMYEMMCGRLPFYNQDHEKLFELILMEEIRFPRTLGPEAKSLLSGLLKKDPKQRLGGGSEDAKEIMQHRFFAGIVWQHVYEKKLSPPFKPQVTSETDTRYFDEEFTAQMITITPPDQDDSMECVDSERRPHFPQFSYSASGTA

In general, IC50 refers to the point on the concentration scale where inhibition reaches its midpoint. As to `NCCn1cc(-c2ccc(F)c(C(F)(F)F)c2)nc1C1CCN(c2ncnc(N)c2C(N)=O)CC1` [Compound 159, 4-amino-6-(4-(1-(2-aminoethyl)-4-(4-fluoro-3-(trifluoromethyl)phenyl)-1H-imidazol-2-yl)piperidin-1-yl)pyrimidine-5-carboxamide], the IC50 at P70S6K (T412E mutant) (read-out: IC50 p70S6K) was 1.5 nM; on His-AKT (Full Length) (read-out: IC50 AKT), 15 nM.

Turning to `Cc1cc(-c2cn(CCO)c(C3CCN(c4ncnc(N)c4-c4cn[nH]c4)CC3)n2)ccc1F` [Compound 160, 2-(2-(1-(6-amino-5-(1H-pyrazol-4-yl)pyrimidin-4-yl)piperidin-4-yl)-4-(4-fluoro-3-methylphenyl)-1H-imidazol-1-yl)ethanol], the IC50 came to 6.7 nM on P70S6K (T412E mutant) (read-out: IC50 p70S6K) and 670 nM at His-AKT (Full Length) (read-out: IC50 AKT).

Consider `Cc1cc(-c2cn(CCNC3CC3)c(C3CCN(c4ncnc(N)c4-c4cn[nH]c4)CC3)n2)ccc1F` [Compound 161, 6-(4-(1-(2-(cyclooropylamino)ethyl)-4-(4-fluoro-3-methylphenyl)-1H-imidazol-2-yl)piperidin-1-yl)-5-(1H-pyrazol-4-yl)pyrimidin-4-amine], for which the IC50 on P70S6K (T412E mutant) (read-out: IC50 (p70S6K enzyme)) came out at 12.9 nM; on P70S6K (T412E mutant) (read-out: IC50 p70S6K), 12.9 nM; at His-AKT (Full Length) (read-out: IC50 (AKT enzyme)), 150 nM; at His-AKT (Full Length) (read-out: IC50 AKT) it was 150 nM.

On to `CNCCn1cc(-c2ccc(F)c(C)c2)nc1C1CCN(c2ncnc(N)c2-c2cn[nH]c2)CC1` [Compound 162, 6-(4-(4-(4-fluoro-3-methylphenyl)-1-(2-(methylamino)ethyl)-1H-imidazol-2-yl)piperidin-1-yl)-5-(1H-pyrazol-4-yl)pyrimidin-4-amine], for which the results for the IC50 on P70S6K (T412E mutant) (read-out: IC50 p70S6K) and on His-AKT (Full Length) (read-out: IC50 AKT) were 5.9 nM and 21 nM, respectively.

Turning to `Cc1cc(-c2cn(CCN(C)C)c(C3CCN(c4ncnc(N)c4-c4cn[nH]c4)CC3)n2)ccc1F` [Compound 163, 6-(4-(1-(2-(dimethylamino)ethyl)-4-(4-fluoro-3-methylphenyl)-1H-imidazol-2-yl)piperidin-1-yl)-5-(1H-pyrazol-4-yl)pyrimidin-4-amine], the IC50 came out at 0.73 nM at P70S6K (T412E mutant) (read-out: IC50 p70S6K) and 4.8 nM on His-AKT (Full Length) (read-out: IC50 AKT).

For `Cc1cc(-c2cn(CCN3CCC3)c(C3CCN(c4ncnc(N)c4-c4cn[nH]c4)CC3)n2)ccc1F` [Compound 164, 6-(4-(1-(2-(azetidin-1-yl)ethyl)-4-(4-fluoro-3-methylphenyl)-1H-imidazol-2-yl)piperidin-1-yl)-5-(1H-pyrazol-4-yl)pyrimidin-4-amine], the IC50 on P70S6K (T412E mutant) (read-out: IC50 p70S6K) came to 4.4 nM; on His-AKT (Full Length) (read-out: IC50 AKT), 5.5 nM.

For `Cc1cc(-c2cn(CCNC(C)(C)C)c(C3CCN(c4ncnc(N)c4-c4cn[nH]c4)CC3)n2)ccc1F` [Compound 165, 6-(4-(1-(2-(tert-butylamino)ethyl)-4-(4-fluoro-3-methylphenyl)-1H-imidazol-2-yl)piperidin-1-yl)-5-(1H-pyrazol-4-yl)pyrimidin-4-amine], the IC50 is 2.8 nM on P70S6K (T412E mutant) (read-out: IC50 p70S6K) and 5.5 nM at His-AKT (Full Length) (read-out: IC50 AKT).

Turning to `CNCCn1cc(-c2ccnc(C(F)(F)F)c2)nc1C1CCN(c2ncnc(N)c2Br)CC1` [Compound 166, 5-bromo-6-(4-(1-(2-(methylamino)ethyl)-4-(2-(trifluoromethyl)pyridin-4-yl)-1H-imidazol-2-yl)piperidin-1-yl)pyrimidin-4-amine], the IC50 on P70S6K (T412E mutant) (read-out: IC50 p70S6K) was determined as 1.3 nM; at His-AKT (Full Length) (read-out: IC50 AKT) it was 1.5 nM.

Consider `CNCCn1cc(-c2ccnc(C(F)(F)F)c2)nc1C1CCN(c2cc(N)ncn2)CC1` [Compound 167, 6-(4-(1-(2-(methylamino)ethyl)-4-(2-(trifluoromethyl)pyridin-4-yl)-1H-imidazol-2-yl)piperidin-1-yl)pyrimidin-4-amine], for which the IC50 at P70S6K (T412E mutant) (read-out: IC50 p70S6K) was 130 nM; at His-AKT (Full Length) (read-out: IC50 AKT), greater than 1000 nM.

Turning to `Nc1ncnc(N2CCC(c3nc(-c4ccnc(C(F)(F)F)c4)cn3CCN3CCC3)CC2)c1-c1cnoc1` [Compound 168, 6-(4-(1-(2-(azetidin-1-yl)ethyl)-4-(2-(trifluoromethyl)pyridin-4-yl)-1H-imidazol-2-yl)piperidin-1-yl)-5-(isoxazol-4-yl)pyrimidin-4-amine], the IC50 at P70S6K (T412E mutant) (read-out: IC50 p70S6K) was 2.9 nM; on His-AKT (Full Length) (read-out: IC50 AKT), 2.7 nM.

Turning to `CNCCn1cc(-c2ccnc(C(F)(F)F)c2)nc1C1CCN(c2ncnc(N)c2C#N)CC1` [Compound 169, 4-amino-6-(4-(1-(2-(methylamino)ethyl)-4-(2-(trifluoromethyl)pyridin-4-yl)-1H-imidazol-2-yl)piperidin-1-yl)pyrimidine-5-carbonitrile], the IC50 came to 1.3 nM at P70S6K (T412E mutant) (read-out: IC50 p70S6K) and 1.7 nM on His-AKT (Full Length) (read-out: IC50 AKT).

Turning to `CNCCn1cc(-c2ccnc(C(F)(F)F)c2)nc1C1CCN(c2ncnc(N)c2C2C=NOC2)CC1` (stereo not drawn) [Compound 170, 5-(4,5-dihydroisoxazol-4-yl)-6-(4-(1-(2-(methylamino)ethyl)-4-(2-(trifluoromethyl)pyridin-4-yl)-1H-imidazol-2-yl)piperidin-1-yl)pyrimidin-4-amine], the IC50 on P70S6K (T412E mutant) (read-out: IC50 p70S6K) turned out to be 170 nM; on His-AKT (Full Length) (read-out: IC50 AKT), 120 nM.

Take `CNCCn1cc(-c2ccnc(C(F)(F)F)c2)nc1C1CCN(c2ncnc(N)c2Cl)CC1` [Compound 172, 5-chloro-6-(4-(1-(2-(methylamino)ethyl)-4-(2-(trifluoromethyl)pyridin-4-yl)-1H-imidazol-2-yl)piperidin-1-yl)pyrimidin-4-amine]: the IC50 came out at 2 nM at P70S6K (T412E mutant) (read-out: IC50 p70S6K) and 1.4 nM on His-AKT (Full Length) (read-out: IC50 AKT).

As to `Nc1ncnc(N2CCC(c3nc(-c4ccnc(C(F)(F)F)c4)cn3CCNC3CC3)CC2)c1Cl` [Compound 173, 5-chloro-6-(4-(1-(2-(cyclopropylamino)ethyl)-4-(2-(trifluoromethyl)pyridin-4-yl)-1H-imidazol-2-yl)piperidin-1-yl)pyrimidin-4-amine], the IC50 on P70S6K (T412E mutant) (read-out: IC50 p70S6K) worked out at 2.8 nM; at His-AKT (Full Length) (read-out: IC50 AKT), 3.6 nM.

For `CCNCCn1cc(-c2ccc(F)c(C(F)(F)F)c2)nc1C1CCN(c2ncnc(N)c2OC(C)C)CC1` [Compound 174, 6-(4-(1-(2-(ethylamino)ethyl)-4-(4-fluoro-3-(trifluoromethyl)phenyl)-1H-imidazol-2-yl)piperidin-1-yl)-5-isopropoxypyrimidin-4-amine], the IC50 is 0.44 nM on P70S6K (T412E mutant) (read-out: IC50 p70S6K) and 0.52 nM at His-AKT (Full Length) (read-out: IC50 AKT).

Take `CC(C)Oc1c(N)ncnc1N1CCC(c2nc(-c3ccc(F)c(C(F)(F)F)c3)cn2CC2CNC2)CC1` [Compound 175, 6-(4-(1-(azetidin-3-ylmethyl)-4-(4-fluoro-3-(trifluoromethyl)phenyl)-1H-imidazol-2-yl)piperidin-1-yl)-5-isopropoxypyrimidin-4-amine]: the results for the IC50 on P70S6K (T412E mutant) (read-out: IC50 p70S6K) and on His-AKT (Full Length) (read-out: IC50 AKT) were 5.9 nM and 4.5 nM, respectively.

As to `CCOc1c(N)ncnc1N1CCC(c2nc(-c3ccc(F)c(C(F)(F)F)c3)cn2CC2CNC2)CC1` [Compound 176, 6-(4-(1-(azetidin-3-ylmethyl)-4-(4-fluoro-3-(trifluoromethyl)phenyl)-1H-imidazol-2-yl)piperidin-1-yl)-5-ethoxypyrimidin-4-amine], the figures for the IC50 at P70S6K (T412E mutant) (read-out: IC50 p70S6K) and at His-AKT (Full Length) (read-out: IC50 AKT) were 5.5 nM and 5 nM, respectively.

As to `Cc1cc(-c2cn(CCN3CCC3)c(C3CCN(c4ncnc(N)c4OC(C)C)CC3)n2)ccc1F` [Compound 178, 6-(4-(1-(2-(azetidin-1-yl)ethyl)-4-(4-fluoro-3-methylphenyl)-1H-imidazol-2-yl)piperidin-1-yl)-5-isopropoxypyrimidin-4-amine], the results for the IC50 at P70S6K (T412E mutant) (read-out: IC50 p70S6K) and at His-AKT (Full Length) (read-out: IC50 AKT) were 3.9 nM and 2.7 nM, respectively.

As for `CCc1c(N)ncnc1N1CCC(c2nc(-c3ccnc(C(C)C)c3)cn2CCN2CCC2)CC1` [Compound 179, 6-(4-(1-(2-(azetidin-1-yl)ethyl)-4-(2-isopropylpyridin-4-yl)-1H-imidazol-2-yl)piperidin-1-yl)-5-ethylpyrimidin-4-amine], the figures for the IC50 at P70S6K (T412E mutant) (read-out: IC50 p70S6K) and on His-AKT (Full Length) (read-out: IC50 AKT) were 1.9 nM and 4.2 nM, respectively.

Take `CC(C)c1cc(-c2cn(CCN3CCC3)c(C3CCN(c4ncnc(N)c4Cl)CC3)n2)ccn1` [Compound 180, 6-(4-(1-(2-(azetidin-1-yl)ethyl)-4-(2-isopropylpyridin-4-yl)-1H-imidazol-2-yl)piperidin-1-yl)-5-chloropyrimidin-4-amine]: the values for the IC50 on P70S6K (T412E mutant) (read-out: IC50 p70S6K) and at His-AKT (Full Length) (read-out: IC50 AKT) were 1.1 nM and 2.4 nM, respectively.

As to `CC(C)c1cc(-c2cn(CCN3CCC3)c(C3CCN(c4ncnc(N)c4Br)CC3)n2)ccn1` [Compound 181, 6-(4-(1-(2-(azetidin-1-yl)ethyl)-4-(2-isopropylpyridin-4-yl)-1H-imidazol-2-yl)piperidin-1-yl)-5-bromopyrimidin-4-amine], the IC50 on P70S6K (T412E mutant) (read-out: IC50 p70S6K) worked out at 0.11 nM; at His-AKT (Full Length) (read-out: IC50 AKT) it was 0.15 nM.

For the molecule `C=Cc1c(N)ncnc1N1CCC(c2nc(-c3ccnc(C(C)C)c3)cn2CCN2CCC2)CC1` [Compound 182, 6-(4-(1-(2-(azetidin-1-yl)ethyl)-4-(2-isopropylpyridin-4-yl)-1H-imidazol-2-yl)piperidin-1-yl)-5-vinylpyrimidin-4-amine], the results for the IC50 at P70S6K (T412E mutant) (read-out: IC50 p70S6K) and at His-AKT (Full Length) (read-out: IC50 AKT) were 0.7 nM and 2.2 nM, respectively.

In the case of `C=Cc1c(N)ncnc1N1CCC(c2nc(-c3ccc(F)c(C(F)(F)F)c3)cn2CC2CNC2)CC1` [Compound 183, 6-(4-(1-(azetidin-3-ylmethyl)-4-(4-fluoro-3-(trifluoromethyl)phenyl)-1H-imidazol-2-yl)piperidin-1-yl)-5-vinylpyrimidin-4-amine], the values for the IC50 at P70S6K (T412E mutant) (read-out: IC50 p70S6K) and on His-AKT (Full Length) (read-out: IC50 AKT) were 12 nM and 74 nM, respectively.

Take `COc1c(N)ncnc1N1CCC(c2nc(-c3ccc(F)c(C)c3)cn2CC2CNC2)CC1` [Compound 184, 6-(4-(1-(azetidin-3-ylmethyl)-4-(4-fluoro-3-methylphenyl)-1H-imidazol-2-yl)piperidin-1-yl)-5-methoxypyrimidin-4-amine]: the IC50 was 0.26 nM at P70S6K (T412E mutant) (read-out: IC50 p70S6K) and 2.3 nM at His-AKT (Full Length) (read-out: IC50 AKT).

`CCOc1c(N)ncnc1N1CCC(c2nc(-c3ccc(F)c(C)c3)cn2CC2CNC2)CC1` [Compound 185, 6-(4-(1-(azetidin-3-ylmethyl)-4-(4-fluoro-3-methylphenyl)-1H-imidazol-2-yl)piperidin-1-yl)-5-ethoxypyrimidin-4-amine]: the IC50 stood at 2.2 nM on P70S6K (T412E mutant) (read-out: IC50 p70S6K) and 6.6 nM on His-AKT (Full Length) (read-out: IC50 AKT).

On to `Cc1cc(-c2cn(CC3CNC3)c(C3CCN(c4ncnc(N)c4OCC(F)(F)F)CC3)n2)ccc1F` [Compound 186, 6-(4-(1-(azetidin-3-ylmethyl)-4-(4-fluoro-3-methylphenyl)-1H-imidazol-2-yl)piperidin-1-yl)-5-(2,2,2-trifluoroethoxy)pyrimidin-4-amine], for which the IC50 on P70S6K (T412E mutant) (read-out: IC50 p70S6K) was 2 nM; on His-AKT (Full Length) (read-out: IC50 AKT) it was 7.1 nM.
